# Data taken from patent US10266560B2, “Bile acid analogs as FXR/TGR5 agonists and methods of use thereof” (Enanta Pharmaceuticals, Inc., priority 2014, dated 2019).
# Read-outs that look alike come from different tables or passages of the source.
# Molecular target: Human FXR (NR1H4) (Homo sapiens (Human), UniProt Q96RI1)
# Assay: Human FXR (NR1H4) Assay (Gal4 promoter driven luciferase reporter transactivation in CHO cells)
# Type: cell-based
# Description: Assays Human FXR (NR1H4) Assay
# Determination of a ligand mediated Gal4 promoter driven transactivation to quantify ligand binding mediated activation of FXR. FXR Reporter Assay kit purchased from Indigo Bioscience (Catalogue number: IB00601) to determine the potency and efficacy of compound developed by Enanta that can induce FXR activation. The principle application of this reporter assay system is to quantify functional activity of human FXR. The assay utilizes non-human mammalian cells, CHO (Chinese hamster ovary) cells engineered to express human NR1H4 protein (referred to as FXR). Reporter cells also incorporate the cDNA encoding beetle luciferase which catalyzes the substrates and yields photon emission. Luminescence intensity of the reaction is quantified using a plate-reading luminometer, Envision. Reporter Cells include the luciferase reporter gene functionally linked to an FXR responsive promoter. Thus, quantifying changes in luciferase expression in the treated reporter cells provides a sensitive surrogate measure of the changes in FXR activity. […] The assay is according to the manufacturer's instructions. In brief, the assay was performed in white, 96 well plates using final volume of 200 ul containing cells with different doses of compounds. Retrieve Reporter Cells from −80° C. storage. Perform a rapid thaw of the frozen cells by transferring a 10 ml volume of 37° C. cell recovery medium into the tube of frozen cells. Recap the tube of Reporter Cells and immediately place it in a 37° C. water bath for 5-10 minutes. Retrieve the tube of Reporter Cell Suspension from the water bath. Sanitize the outside surface of the tube with a 70% alcohol swab, and then transfer it into the cell culture hood. Dispense 100 μl of cell suspension into each well of the 96-well Assay Plate. Transfer the plate into 37° C. incubator, allowing the cells adherent to the bottom of the well. Dilute compounds in Dilution Plate (DP), and administrate to cells at Assay Plate (AP). DMSO content of the samples was kept at 0.2%. Cells were incubated for additional 22 hours before luciferase activities were measured. Thirty minutes before intending to quantify FXR activity, remove Detection Substrate and Detection Buffer from the refrigerator and place them in a low-light area so that they may equilibrate to room temperature. Remove the plate's lid and discard all media contents by ejecting it into an appropriate waste container. Gently tap the inverted plate onto a clean absorbent paper towel to remove residual droplets. Cells will remain tightly adhered to well bottoms. Add 100 μl of luciferase detection reagent to each well of the assay plate. Allow the assay plate to rest at room temperature for at least 5 minutes following the addition of LDR. Set the instrument (Envision) to perform a single 5 second “plate shake” prior to reading the first assay well. Read time may be 0.5 second (500 mSec) per well.
# [1] = FXR agonistic potency range; CHO reporter cells expressing human NR1H4, 22 hours incubation; read-out: EC50
# [2] = efficacy normalized to chenodeoxycholic acid (CDCA) set as 100%
# Sequence of Human FXR (NR1H4) (Q96RI1 whole entry, the tested form may be a part): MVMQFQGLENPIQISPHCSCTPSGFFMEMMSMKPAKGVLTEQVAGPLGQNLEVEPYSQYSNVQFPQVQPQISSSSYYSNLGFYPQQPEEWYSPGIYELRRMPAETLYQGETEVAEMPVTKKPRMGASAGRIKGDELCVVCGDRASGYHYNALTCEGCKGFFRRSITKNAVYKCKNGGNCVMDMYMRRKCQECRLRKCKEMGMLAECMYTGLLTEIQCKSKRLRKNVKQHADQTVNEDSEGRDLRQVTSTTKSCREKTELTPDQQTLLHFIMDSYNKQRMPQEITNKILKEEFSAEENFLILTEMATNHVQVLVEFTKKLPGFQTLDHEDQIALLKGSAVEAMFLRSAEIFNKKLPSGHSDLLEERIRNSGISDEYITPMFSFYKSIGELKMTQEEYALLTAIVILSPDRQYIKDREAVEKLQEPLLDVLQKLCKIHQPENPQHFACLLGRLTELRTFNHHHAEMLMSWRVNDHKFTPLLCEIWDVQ
Efficacy (%) [2],Compound,Emax (CHO; read-out: Efficacy (%)),EC50 (read-out: EC50),EC50 [1],"Emax (CHO, read-out: Efficacy (%))",other results
,CC[C@@H]1C2C[C@H](O)CCC2(C)[C@H]2CCC3(C)C([C@H](C)CCC(=O)NS(=O)(=O)c4cccnc4)CC[C@H]3[C@@H]2[C@@H]1O (stereo partly shown) [Example 466],258%,1000 to 10000 nM,,,
,CC[C@@H]1C2C[C@H](O)CCC2(C)[C@H]2CCC3(C)C([C@H](C)CCC(=O)NS(=O)(=O)c4ccccc4Cl)CC[C@H]3[C@@H]2[C@@H]1O (stereo partly shown) [Example 451],274%,100 to 1000 nM,,,
,CC[C@@H]1C2C[C@H](O)CCC2(C)[C@H]2CCC3(C)C([C@H](C)CCC(=O)NS(=O)(=O)c4ccccc4C(F)(F)F)CC[C@H]3[C@@H]2[C@@H]1O (stereo partly shown) [Example 459],310%,100 to 1000 nM,,,
348%,CCC1C(O)C2C3CCC(C(C)CCC(=O)NS(=O)(=O)c4ccccc4C)C3(C)CCC2C2(C)CCC(O)CC12 (stereo not shown) [Example 20],,,100 to 1000 nM,,
315%,CCC1C(O)C2C3CCC(C(C)CCC(=O)NS(=O)(=O)C4CC4)C3(C)CCC2C2(C)CCC(O)CC12 (stereo not shown) [Example 11],,,100 to 1000 nM,,
347%,CCC1C(O)C2C3CCC(C(C)CCC(=O)NS(=O)(=O)F)C3(C)CCC2C2(C)CCC(O)CC12 (stereo not shown) [Example 25],,,1000 to 10000 nM,,
,CC[C@@H]1C2C[C@H](O)CCC2(C)[C@H]2CCC3(C)C([C@H](C)CCC(=O)NS(=O)(=O)c4ccc(OC)cc4)CC[C@H]3[C@@H]2[C@@H]1O (stereo partly shown) [Example 455],,,< 100 nM,417%,
,CC[C@@H]1C2C[C@H](O)CCC2(C)[C@H]2CCC3(C)C([C@H](C)CCC(=O)NS(=O)(=O)c4cccc5ccccc45)CC[C@H]3[C@@H]2[C@@H]1O (stereo partly shown) [Example 483],,,< 100 nM,308%,
,CC[C@H]1[C@@H](O)[C@@H]2[C@H](CC[C@]3(C)[C@@H]([C@H](C)C[C@@H](C)C(=O)NS(=O)(=O)C4CC4)CC[C@@H]23)[C@@]2(C)CC[C@@H](O)C[C@@H]12 [Example 486],387%,100 to 1000 nM,,,
,CC[C@@H]1C2C[C@H](O)CCC2(C)[C@H]2CCC3(C)C([C@H](C)CCC(=O)NS(=O)(=O)c4cnccn4)CC[C@H]3[C@@H]2[C@@H]1O (stereo partly shown) [Example 469],447%,1000 to 10000 nM,,,
,CC[C@@H]1C2C[C@H](O)CCC2(C)[C@H]2CCC3(C)C([C@H](C)CCC(=O)NS(=O)(=O)c4cccc5ncccc45)CC[C@H]3[C@@H]2[C@@H]1O (stereo partly shown) [Example 470],439%,100 to 1000 nM,,,
295%,CCCS(=O)(=O)NC(=O)CCC(C)C1CCC2C3C(O)C(CC)C4CC(O)CCC4(C)C3CCC12C (stereo not shown) [Example 6],,,100 to 1000 nM,,
,CC[C@@H]1C2C[C@H](O)CCC2(C)[C@H]2CCC3(C)C([C@H](C)CCC(=O)NS(=O)(=O)c4cccc(Cl)c4)CC[C@H]3[C@@H]2[C@@H]1O (stereo partly shown) [Example 479],,,< 100 nM,572%,
,CC[C@@H]1C2C[C@H](O)CCC2(C)[C@H]2CCC3(C)C([C@H](C)CCC(=O)NS(=O)(=O)C4CCCC4)CC[C@H]3[C@@H]2[C@@H]1O (stereo partly shown) [Example 482],,,< 100 nM,342%,
,CC[C@@H]1C2C[C@H](O)CCC2(C)[C@H]2CCC3(C)C([C@H](C)CCC(=O)NS(=O)(=O)c4ccc(OC(F)(F)F)cc4)CC[C@H]3[C@@H]2[C@@H]1O (stereo partly shown) [Example 473],,,< 100 nM,606%,
218%,CCC1C(O)C2C3CCC(C(C)CCC(=O)NS(=O)(=O)C(C)(C)C)C3(C)CCC2C2(C)CCC(O)CC12 (stereo not shown) [Example 5],,,< 100 nM,,
,CC[C@@H]1C2C[C@H](O)CCC2(C)[C@H]2CCC3(C)C([C@H](C)CCC(=O)NS(=O)(=O)c4ccncc4)CC[C@H]3[C@@H]2[C@@H]1O (stereo partly shown) [Example 463],251%,1000 to 10000 nM,,,
,CC[C@@H]1C2C[C@H](O)CCC2(C)[C@H]2CCC3(C)C([C@H](C)CCC(=O)NS(=O)(=O)c4ccc(Cl)cc4)CC[C@H]3[C@@H]2[C@@H]1O (stereo partly shown) [Example 480],,,< 100 nM,346%,

Efficacy (%) [2],Compound,Emax (CHO; read-out: Efficacy (%)),EC50 (read-out: EC50),EC50 [1],"Emax (CHO, read-out: Efficacy (%))",other results
,CC[C@@H]1C2C[C@H](O)CCC2(C)[C@H]2CCC3(C)C([C@H](C)CCC(=O)NS(=O)(=O)c4cc(F)cc(F)c4)CC[C@H]3[C@@H]2[C@@H]1O (stereo partly shown) [Example 464],293%,100 to 1000 nM,,,
,CC[C@H]1[C@@H](O)[C@@H]2[C@H](CC[C@]3(C)[C@@H]([C@H](C)C[C@@H](C)C(=O)NS(=O)(=O)c4ccc(C(C)(C)C)cc4)CC[C@@H]23)[C@@]2(C)CC[C@@H](O)C[C@@H]12 [Example 485],185%,100 to 1000 nM,,,
259%,CCC1C(O)C2C3CCC(C(C)CCC(=O)NS(=O)(=O)c4ccccc4F)C3(C)CCC2C2(C)CCC(O)CC12 (stereo not shown) [Example 22],,,100 to 1000 nM,,
,CC[C@@H]1C2C[C@H](O)CCC2(C)[C@H]2CCC3(C)C([C@H](C)CCC(=O)NS(=O)(=O)c4ccc5c(c4)OCO5)CC[C@H]3[C@@H]2[C@@H]1O (stereo partly shown) [Example 481],,,< 100 nM,359%,
219%,CCC1C(O)C2C3CCC(C(C)CCC(=O)NS(=O)(=O)N4CCOCC4)C3(C)CCC2C2(C)CCC(O)CC12 (stereo not shown) [Example 16],,,1000 to 10000 nM,,
,CC[C@@H]1C2C[C@H](O)CCC2(C)[C@H]2CCC3(C)C([C@H](C)CCC(=O)NS(=O)(=O)c4cccc(OC(F)(F)F)c4)CC[C@H]3[C@@H]2[C@@H]1O (stereo partly shown) [Example 471],,,< 100 nM,467%,
,CC[C@@H]1C2C[C@H](O)CCC2(C)[C@H]2CCC3(C)C([C@H](C)CCC(=O)NS(=O)(=O)c4cccs4)CC[C@H]3[C@@H]2[C@@H]1O (stereo partly shown) [Example 467],315%,100 to 1000 nM,,,
,CC[C@@H]1C2C[C@H](O)CCC2(C)[C@H]2CCC3(C)C([C@H](C)CCC(=O)NS(=O)(=O)c4cccc(C)c4)CC[C@H]3[C@@H]2[C@@H]1O (stereo partly shown) [Example 457],,,< 100 nM,382%,
258%,CCC1C(O)C2C3CCC(C(C)CCC(=O)NS(=O)(=O)CC)C3(C)CCC2C2(C)CCC(O)CC12 (stereo not shown) [Example 2],,,100 to 1000 nM,,
,CC[C@@H]1C2C[C@H](O)CCC2(C)[C@H]2CCC3(C)C([C@H](C)CCC(=O)NS(=O)(=O)c4cccc(F)c4)CC[C@H]3[C@@H]2[C@@H]1O (stereo partly shown) [Example 456],,,< 100 nM,415%,
,CC[C@@H]1C2C[C@H](O)CCC2(C)[C@H]2CCC3(C)C([C@H](C)CCC(=O)NS(=O)(=O)c4cccc([N+](=O)[O-])c4)CC[C@H]3[C@@H]2[C@@H]1O (stereo partly shown) [Example 452],,,,292%,EC50: 1000 to 10000 nM
,CC[C@@H]1C2C[C@H](O)CCC2(C)[C@H]2CCC3(C)C([C@H](C)CCC(=O)NS(=O)(=O)c4ccc(C#N)cc4)CC[C@H]3[C@@H]2[C@@H]1O (stereo partly shown) [Example 461],283%,100 to 1000 nM,,,
,CC[C@H]1[C@@H](O)[C@@H]2[C@H](CC[C@]3(C)[C@@H]([C@H](C)CCC(=O)N(C)S(=O)(=O)c4ccccc4)CC[C@@H]23)[C@@]2(C)CC[C@@H](O)C[C@@H]12 [Example 489],231%,1000 to 10000 nM,,,
280%,CCC1C(O)C2C3CCC(C(C)CCC(=O)NS(=O)(=O)c4ccccc4[N+](=O)[O-])C3(C)CCC2C2(C)CCC(O)CC12 (stereo not shown) [Example 23],,,100 to 1000 nM,,
,CC[C@H]1[C@@H](O)[C@@H]2[C@H](CC[C@]3(C)[C@@H]([C@H](C)C[C@@H](C)C(=O)NS(=O)(=O)c4ccc(OC(F)(F)F)cc4)CC[C@@H]23)[C@@]2(C)CC[C@@H](O)C[C@@H]12 [Example 487],,,< 100 nM,287%,
,CC[C@@H]1C2C[C@H](O)CCC2(C)[C@H]2CCC3(C)C([C@H](C)CCC(=O)NS(=O)(=O)c4cccc(C(F)(F)F)c4)CC[C@H]3[C@@H]2[C@@H]1O (stereo partly shown) [Example 460],,,< 100 nM,291%,
271%,CCC1C(O)C2C3CCC(C(C)CCC(=O)NS(=O)(=O)c4ccc(C)cc4)C3(C)CCC2C2(C)CCC(O)CC12 (stereo not shown) [Example 24],,,< 100 nM,,
331%,CCC1C(O)C2C3CCC(C(C)CCC(=O)NS(=O)(=O)C4(C)CC4)C3(C)CCC2C2(C)CCC(O)CC12 (stereo not shown) [Example 12],,,100 to 1000 nM,,

Compound,Efficacy (%) [2],Emax (CHO; read-out: Efficacy (%)),EC50 (read-out: EC50),EC50 [1],"Emax (CHO, read-out: Efficacy (%))",other results
CCCCS(=O)(=O)NC(=O)CCC(C)C1CCC2C3C(O)C(CC)C4CC(O)CCC4(C)C3CCC12C (stereo not shown) [Example 4],376%,,,100 to 1000 nM,,
C=CCS(=O)(=O)NC(=O)CCC(C)C1CCC2C3C(O)C(CC)C4CC(O)CCC4(C)C3CCC12C (stereo not shown) [Example 9],248%,,,100 to 1000 nM,,
